Each structure is given as a SMILES string. Where a name gives a salt, the structure may show the parent alone.

The target in this assay is T1, BACE1 enzyme (Homo sapiens, UniProt P56817).
T1 construct: transfected with a soluble BACE construct (BACE1deltaTM96His); His (C); made in house; host or cells: CHO-K1 cells (secreted into conditioned media)
T1 sequence (P56817 46-457 limits assumed): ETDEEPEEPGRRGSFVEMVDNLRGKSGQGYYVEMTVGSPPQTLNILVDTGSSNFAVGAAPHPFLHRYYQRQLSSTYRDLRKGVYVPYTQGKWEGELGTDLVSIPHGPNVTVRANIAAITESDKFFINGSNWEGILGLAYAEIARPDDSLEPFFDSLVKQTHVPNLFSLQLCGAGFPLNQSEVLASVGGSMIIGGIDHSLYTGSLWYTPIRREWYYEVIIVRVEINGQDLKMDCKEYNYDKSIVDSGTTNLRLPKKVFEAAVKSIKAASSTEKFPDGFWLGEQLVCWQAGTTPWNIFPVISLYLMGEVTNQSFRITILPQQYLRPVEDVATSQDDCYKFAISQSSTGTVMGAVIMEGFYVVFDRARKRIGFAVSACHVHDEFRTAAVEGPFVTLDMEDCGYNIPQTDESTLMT
As to the kind of experiment: BACE1 Cell-Free Assay (fluorescence polarization, cleavage of synthetic APP substrate). The format is biochemical. The following applies: geometric mean of 2-4 determinations unless otherwise indicated (b: ≧5 determinations; c: single determination); 0.1 nM BACE1, 150 nM peptide substrate, pH 4.5, 3 hours at 37° C. The source says: Beta-secretase (BACE) is one of the enzymes involved in the generation of the amyloid beta peptide found in the amyloid plaques of Alzheimer's disease patients. This assay measures the inhibition of the beta-secretase enzyme as it cleaves a non-native peptide.
A synthetic APP substrate that can be cleaved by beta-secretase having N-terminal biotin and made fluorescent by the covalent attachment of Oregon Green at the Cys residue is used to assay beta-secretase activity in the presence or absence of the inhibitory compounds. The substrate is Biotin-GLTNIKTEEISEISY^EVEFR-C[Oregon Green]KK-OH. The BACE1 enzyme is affinity purified material from conditioned media of CHO-K1 cells that have been transfected with a soluble BACE construct (BACE1deltaTM96His). Compounds are incubated in a ½ log dose response curve from a top concentration of 100 μM with BACE1 enzyme and the biotinylated fluorescent peptide in 384-well black plates (Thermo Scientific #4318). BACE1 is at a final concentration of 0.1 nM with a final concentration of peptide substrate of 150 nM in a reaction volume of 30 μL assay buffer [100 mM sodium acetate, pH 4.5 (brought to pH with acetic acid), and 0.001% Tween-20]. Plates are covered and incubated for 3 hours at 37° C. The reaction is stopped with the addition of 30 μL of 1.5 μM Streptavidin (Pierce, #21125). After a 10 minute incubation at room temperature, plates are read on a PerkinElmer EnVision for fluorescence polarization (Ex485 nm/Em530 nm). The activity of the beta-secretase enzyme is detected by changes in the fluorescence polarization that occur when the substrate is cleaved by the enzyme.
In general terms: In fluorescence polarisation assays a small probe gives low polarisation when free and higher when bound to something large.
For orientation: IC50 means the concentration that gives 50% inhibition. High values mean a need for much substance, low ones inhibition by little substance. As to `CN1C(N)=N[C@@](C)(c2nc(NC(=O)c3ccc(OC(F)F)cn3)cs2)[C@H](C2CC2)S1(=O)=O` (single isomer, unassigned) [Example 3], the IC50 is 31200 nM.

The compound `CN1C(N)=N[C@](C)(c2nc(NC(=O)c3ccc(OC(F)F)cn3)cs2)[C@@H](C2CC2)S1(=O)=O` (single isomer, unassigned) [Example 4] yielded an IC50 of 103 nM. Then `CN1C(N)=N[C@](C)(c2nc(NC(=O)c3ccc(OC(F)F)cn3)cs2)[C@H](C2CC2)S1(=O)=O` (single isomer, unassigned) [Example 5], with 51 nM. Then `CN1C(N)=N[C@@](C)(c2nc(NC(=O)c3ccc(OC(F)F)cn3)cs2)C(C)(C)S1(=O)=O` (single isomer, unassigned) [Example 7], with 4400 nM.

For `CN1C(N)=N[C@](C)(c2nc(NC(=O)c3ccc(OC(F)F)cn3)cs2)C(C)(C)S1(=O)=O` (single isomer, unassigned) [Example 8], 78 nM corresponded to half-maximal inhibition (IC50). As for `C[C@H]1[C@](C)(c2nc(NC(=O)c3ccc(OC(F)F)cn3)cs2)N=C(N)N(C)S1(=O)=O` (single isomer, unassigned) [Example 10], the IC50 was determined as 18000 nM. To `C[C@@H]1[C@@](C)(c2nc(NC(=O)c3ccc(OC(F)F)cn3)cs2)N=C(N)N(C)S1(=O)=O` (single isomer, unassigned) [Example 11] belongs 136 nM; to `C[C@H]1[C@@](C)(c2nc(NC(=O)c3ccc(OC(F)F)cn3)cs2)N=C(N)N(C)S1(=O)=O` (single isomer, unassigned) [Example 12], 88 nM; to `C[C@@H]1[C@](C)(c2nc(NC(=O)c3ccc(OC(F)F)cn3)cs2)N=C(N)N(C)S1(=O)=O` (single isomer, unassigned) [Example 13], 33800 nM. To `CN1C(N)=N[C@](C)(c2nc(NC(=O)c3ccc(OC(F)F)cn3)cs2)CS1(=O)=O` [Example 1, N-{2-[(5S)-3-amino-2,5-dimethyl-1,1-dioxido-5,6-dihydro-2H-1,2,4-thiadiazin-5-yl]-1,3-thiazol-4-yl}-5-(difluoromethoxy)pyridine-2-carboxamide] belongs 60 nM; to `CN1C(N)=N[C@](C)(c2nc(NC(=O)c3ccn(C(F)F)n3)cs2)CS1(=O)=O` [Example 2, N-{2-[(5S)-3-amino-2,5-dimethyl-1,1-dioxido-5,6-dihydro-2H-1,2,4-thiadiazin-5-yl]-1,3-thiazol-4-yl}-1-(difluoromethyl)-1H-pyrazole-3-carboxamide], 19 nM.

`CN1C(N)=NC(C)(c2nc(NC(=O)c3ccc(OC(F)F)cn3)cs2)C(C)(C)S1(=O)=O` (stereo not drawn) [Example 6, N-[2-(3-amino-2,5,6,6-tetramethyl-1,1-dioxido-5,6-dihydro-2H-1,2,4-thiadiazin-5-yl)-1,3-thiazol-4-yl]-5-(difluoromethoxy)pyridine-2-carboxamide]: the IC50 came out at 185 nM.

Consider `Cc1cc(OC(F)F)cnc1C(=O)Nc1csc([C@]2(C)CS(=O)(=O)N(C)C(N)=N2)n1` [Example 9, N-{2-[(5S)-3-amino-2,5-dimethyl-1,1-dioxido-5,6-dihydro-2H-1,2,4-thiadiazin-5-yl]-1,3-thiazol-4-yl}-5-(difluoromethoxy)-3-methylpyridine-2-carboxamide, methanesulfonic acid salt], for which the IC50 came to 29 nM. Then `CC[C@H]1[C@](C)(c2nc(NC(=O)c3ccc(OC(F)F)cn3)cs2)N=C(N)N(C)S1(=O)=O` [Example 14, N-{2-[(5R,6S)-3-amino-6-ethyl-2,5-dimethyl-1,1-dioxido-5,6-dihydro-2H-1,2,4-thiadiazin-5-yl]-1,3-thiazol-4-yl}-5-(difluoromethoxy)pyridine-2-carboxamide], with 14200 nM; and `CC[C@@H]1[C@@](C)(c2nc(NC(=O)c3ccc(OC(F)F)cn3)cs2)N=C(N)N(C)S1(=O)=O` [Example 15, N-{2-[(5S,6R)-3-amino-6-ethyl-2,5-dimethyl-1,1-dioxido-5,6-dihydro-2H-1,2,4-thiadiazin-5-yl]-1,3-thiazol-4-yl}-5-(difluoromethoxy)pyridine-2-carboxamide], with 371 nM. Regarding `CC[C@@H]1[C@](C)(c2nc(NC(=O)c3ccc(OC(F)F)cn3)cs2)N=C(N)N(C)S1(=O)=O` [Example 16, N-{2-[(5R,6R)-3-amino-6-ethyl-2,5-dimethyl-1,1-dioxido-5,6-dihydro-2H-1,2,4-thiadiazin-5-yl]-1,3-thiazol-4-yl}-5-(difluoromethoxy)pyridine-2-carboxamide], the IC50 came to 3920 nM. Then `CC[C@H]1[C@@](C)(c2nc(NC(=O)c3ccc(OC(F)F)cn3)cs2)N=C(N)N(C)S1(=O)=O` [Example 17, N-{2-[(5S,6S)-3-amino-6-ethyl-2,5-dimethyl-1,1-dioxido-5,6-dihydro-2H-1,2,4-thiadiazin-5-yl]-1,3-thiazol-4-yl}-5-(difluoromethoxy)pyridine-2-carboxamide], with 200 nM. Then `CN1C(N)=N[C@](C)(c2nc(NC(=O)c3cnc(CF)cn3)cs2)CS1(=O)=O` [Example 18, N-{2-[(5S)-3-amino-2,5-dimethyl-1,1-dioxido-5,6-dihydro-2H-1,2,4-thiadiazin-5-yl]-1,3-thiazol-4-yl}-5-(fluoromethyl)pyrazine-2-carboxamide], with 246 nM. As to `CN1C(N)=N[C@](C)(c2nc(NC(=O)c3cnc(C(F)F)cn3)cs2)CS1(=O)=O` [Example 19, N-{2-[(5S)-3-amino-2,5-dimethyl-1,1-dioxido-5,6-dihydro-2H-1,2,4-thiadiazin-5-yl]-1,3-thiazol-4-yl}-5-(difluoromethyl)pyrazine-2-carboxamide], inhibition was half-maximal at 172 nM (IC50). To `CN1C(N)=N[C@](C)(c2nc(NC(=O)c3ccc(Cl)cn3)cs2)CS1(=O)=O` [Example 20, N-{2-[(5S)-3-amino-2,5-dimethyl-1,1-dioxido-5,6-dihydro-2H-1,2,4-thiadiazin-5-yl]-1,3-thiazol-4-yl}-5-chloropyridine-2-carboxamide] belongs 42 nM; to `CN1C(N)=N[C@](C)(c2nc(NC(=O)c3coc(CF)n3)cs2)CS1(=O)=O` [Example 21, N-{2-[(5S)-3-amino-2,5-dimethyl-1,1-dioxido-5,6-dihydro-2H-1,2,4-thiadiazin-5-yl]-1,3-thiazol-4-yl}-2-(fluoromethyl)-1,3-oxazole-4-carboxamide], 11 nM.

`CN1C(N)=N[C@](C)(c2nc(NC(=O)c3cnc(OCC(C)(F)F)cn3)cs2)CS1(=O)=O` [Example 22, N-{2-[(5S)-3-amino-2,5-dimethyl-1,1-dioxido-5,6-dihydro-2H-1,2,4-thiadiazin-5-yl]-1,3-thiazol-4-yl}-5-(2,2-difluoropropoxy)pyrazine-2-carboxamide] returned an IC50 of 134 nM. Then `CC#CCOc1cnc(C(=O)Nc2csc([C@]3(C)CS(=O)(=O)N(C)C(N)=N3)n2)cn1` [Example 23, N-{2-[(5S)-3-amino-2,5-dimethyl-1,1-dioxido-5,6-dihydro-2H-1,2,4-thiadiazin-5-yl]-1,3-thiazol-4-yl}-5-(but-2-yn-1-yloxy)pyrazine-2-carboxamide], with 13 nM; and `CC#CCOc1ccc(C(=O)Nc2csc([C@]3(C)CS(=O)(=O)N(C)C(N)=N3)n2)nc1` [Example 24, N-{2-[(5S)-3-amino-2,5-dimethyl-1,1-dioxido-5,6-dihydro-2H-1,2,4-thiadiazin-5-yl]-1,3-thiazol-4-yl}-5-(but-2-yn-1-yloxy)pyridine-2-carboxamide], with 13 nM; and `CN1C(N)=N[C@](C)(c2nc(NC(=O)c3ncc(OC(F)F)cc3Cl)cs2)CS1(=O)=O` [Example 25, N-{2-[(5S)-3-amino-2,5-dimethyl-1,1-dioxido-5,6-dihydro-2H-1,2,4-thiadiazin-5-yl]-1,3-thiazol-4-yl}-3-chloro-5-(difluoromethoxy)pyridine-2-carboxamide], with 23 nM. Then `CN1C(N)=N[C@](C)(c2nc(NC(=O)c3ccc(C#N)cn3)cs2)CS1(=O)=O` [Example 26, N-{2-[(5S)-3-amino-2,5-dimethyl-1,1-dioxido-5,6-dihydro-2H-1,2,4-thiadiazin-5-yl]-1,3-thiazol-4-yl}-5-cyanopyridine-2-carboxamide], with 45 nM; and `Cc1cc(C#N)cnc1C(=O)Nc1csc([C@]2(C)CS(=O)(=O)N(C)C(N)=N2)n1` [Example 27, N-{2-[(5S)-3-amino-2,5-dimethyl-1,1-dioxido-5,6-dihydro-2H-1,2,4-thiadiazin-5-yl]-1,3-thiazol-4-yl}-5-cyano-3-methylpyridine-2-carboxamide], with 9 nM.

The values are drawn from US9611264B1, “N-[2-(3-amino-2,5-dimethyl-1,1-dioxido-5,6-dihydro-2H-1,2,4-thiadiazin-5-yl)-1,3-thiazol-4-yl] amides” (Pfizer Inc., priority 2015, dated 2017).
